Structures are written as SMILES.

For this assay, the system named is RPS19-insufficient cord blood CD34+ HSPCs. Kind of assay: In vitro differentiation of cord blood CD34+ HSPCs transduced with shRNA against RPS19 (cell count and flow cytometry). On erythroid expansion in RPS19-insufficiency, % of control: untreated 8.7%. It counts as cell-based, human. As to conditions: for increase of erythropoiesis in RPS19-insufficiency compared with control treated cells: CD235+ erythroid cells after 15 days, inhibitors at working concentrations for TGFβ inhibition every three days, Fig. 1d. On the procedure: Cells were plated at 2000 cell per well in 96-well plates in the presence or absence of doxycycline. Relative amounts of live cells were quantified by luciferase-based Cell titer-Glo® assay. b TGFβR1 inhibitors were assessed for their ability to increase cell expansion in RPS19-insuffiency. As a control, vehicle alone (no doxycycline) is represented at the far left while all other samples were treated with doxycycline to induce RPS19-insufficiency. c Kit^+ erythroid progenitors were grown in the absence of doxycycline and in the presence of 10 µM of indicated compound. In addition, cells were treated with 5 ng/ml of TGFβ1 for 5 days before being subjected to Cell titer-Glo® assay. d Differentiating cord blood CD34^+ progenitors were transduced with shRNA against luciferase or RPS19 and treated with inhibitors at working concentrations for TGFβ inhibition every three days. […] Cells were counted and CD235^+ erythroid (i and iii) and CD11b^+ myeloid cell (ii and iv) percentages were determined by flow cytometry. The number of erythroid or myeloid cells is expressed as a percentage of the number of that lineage with no cytokine or drug treatment. Bars represent means ± SD with individual data points overlaid. n = 3 independent experiments performed in triplicate. Statistics: two-tailed Student’s t test, significant *p < 0.05. Also see Supplementary Fig. 1. Erythroid expansion is depicted in red while myeloid is in purple. Source data are provided as a Source Data file.
Cells were counted and assessed for cell surface expression of CD235. b Lin-Kit^+ hematopoietic progenitors were obtained from three mouse embryos expressing tetracycline-inducible shRNA against RPS19 at day E14.5 or three untreated mice, and thee mature RPL11^+/+ or three mature RPL11^+/lox mice treated with tamoxifen for eight weeks. […] Values were expressed as a percentage relative to untreated controls. c, d Intracellular phosphorylation of NLK at Thr298 was determined by capillary electrophoresis using the Peggy Sue™ Automated Western blotting platform. After lysis, 4 µg of protein from the CD235^+ population was probed against pThr298-NLK and normalized to GAPDH. […] After counting the total cell population, the ratio of CD235^+ erythroblasts was determined by flow cytometry and number of CD235^+ erythroblasts calculated. This was expressed as a percentage of the average number of erythroid cells present in untreated healthy controls. f NLK phosphorylation was assessed by capillary electrophoresis as above. Bars represent means ± SD with individual data points overlaid. […] Statistics: two-tailed Student’s t test, significant *p < 0.05. Also see Supplementary Fig. 8. Source data are provided as a Source Data file.
Primary human CD34^+ hematopoietic stem and progenitor cells were purified from cord or peripheral blood (New York Blood Center) or from human fetal liver tissue (Advanced Bioscience Resources and University of California, Los Angeles Center for AIDS Research) by using magnetic-activated cell sorting (Miltenyi Biotec) and were cryopreserved. Upon thawing, cells were cultured in x-Vivo15 media (Lonza) containing 10% fetal bovine serum, fms-related tyrosine kinase 3 (50 ng/ml), […] (50 ng/ml), interleukin-3 (IL-3; 20 ng/ml), interleukin-6 (IL-6; 20 ng/ml), and stem cell factor (50 ng/ml). When applied, TGFβ1 was added at 5 ng/ml. Kp53A1 cells were obtained from Javier Leon and cultured in DMEM supplemented with 10% fetal bovine serum at 37 or 32 °C.
A general note: A flow cytometer gives signals particle by particle.

In the case of `NC(=O)c1ccc(-c2nc(-c3ccc4c(c3)OCO4)c(-c3ccccn3)[nH]2)cc1` [SB431542], the “increase of erythropoiesis in RPS19-insufficiency compared with control treated cells” value is listed as 3.2 fold.

As for `Fc1ccc(Cl)cc1-c1nc(Nc2ccncc2)c2nccnc2n1` [SD208], the “increase of erythropoiesis in RPS19-insufficiency compared with control treated cells” value was found to be 6.3 fold. For the same compound, the “erythroid expansion (CD235) in RPS19-insufficient HSPCs” value (12 days, recommended concentrations, rebuttal Experiment 12) is listed as “significantly increased”. Where the note is “CD235+, 12 days, recommended concentrations, Supplementary Fig. 2b”, the “improvement of erythropoiesis (comparison of SD208 with p38 inhibitors)” value was “improved erythropoiesis”. Further, for the setting “Homo sapiens, 360 h, read-out: erythroid expansion in RPS19-insufficiency, % of control”, the activity at 5 µM worked out at 38.7%. For the same compound, the “erythroid expansion, % of vehicle treated control cells” value (RPS19-insufficient cells, 5 µM, with or without TGFβ, Fig. 1e.iii) is reported as 428.6%. Under “SD208 alone every three days, 15 days, untreated […], Fig. 2d.i”, the “RPS19-insufficient CD235+ erythroblast expansion, % of ribosome-competent controls” value is recorded as 40.3%. Where the note is “SD208 plus siNLK, 15 days, untreated […], Fig. 2d.i”, the “RPS19-insufficient CD235+ erythroblast expansion, % of ribosome-competent controls, combined with siRNA against NLK” value was determined as 43.6%. Further, the “effect on differentiation of non-erythroid hematopoietic lineages” value (control or ribosome-insufficient cells) was “did not impact”.

The values are drawn from article PMC7334220, “Diamond Blackfan anemia is mediated by hyperactive Nemo-like kinase” (Nature Communications, 2020).
